Laboratory results: the supplement of paper PMC10307832

Legend:
Assay in all cases: relative viability (nuclei count vs DMSO), 5 days (fraction); higher = more cells survive
Irinotecan + OSI-027 = compound: CCc1c2c(nc3ccc(OC(=O)N4CCC(N5CCCCC5)CC4)cc13)-c1cc3c(c(=O)n1C2)COC(=O)[C@]3(O)CC [Irinotecan] + COc1cccc2cc(-c3nc([C@H]4CC[C@H](C(=O)O)CC4)n4ncnc(N)c34)[nH]c12 [OSI-027] (partner 0.5 µM)
Procedure, shortened: (§1)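 Dosing by pin tool came one day after lung cancer cell lines were seeded in 1536-well plates, using either one drug or a fixed anchor-drug dose plus five library-drug doses (not always all listed) in √10 steps. After 5 days, nuclei were counted on 4× images. Relative viability is treated-well nuclei count divided by vehicle-well nuclei count, and values are medians of duplicate plates.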

Irinotecan + Olaparib = compound: CCc1c2c(nc3ccc(OC(=O)N4CCC(N5CCCCC5)CC4)cc13)-c1cc3c(c(=O)n1C2)COC(=O)[C@]3(O)CC [Irinotecan] + O=C(c1cc(Cc2n[nH]c(=O)c3ccccc23)ccc1F)N1CCN(C(=O)C2CC2)CC1 [Olaparib] (partner 8 µM)
Procedure, shortened: as §1

MK-8033 + Pictilisib = compound: Cn1cc(-c2cnc3ccc4ccc(CS(=O)(=O)NCc5ccccn5)cc4c(=O)c3c2)cn1 [MK-8033] + CS(=O)(=O)N1CCN(Cc2cc3nc(-c4cccc5[nH]ncc45)nc(N4CCOCC4)c3s2)CC1 [Pictilisib] (partner 1 µM)
Procedure, shortened: as §1

MK-8033 + Olaparib = compound: Cn1cc(-c2cnc3ccc4ccc(CS(=O)(=O)NCc5ccccn5)cc4c(=O)c3c2)cn1 [MK-8033] + O=C(c1cc(Cc2n[nH]c(=O)c3ccccc23)ccc1F)N1CCN(C(=O)C2CC2)CC1 [Olaparib] (partner 8 µM)
Procedure, shortened: as §1

| Cell Line | relative viability (Irinotecan + OSI-027; first compound 0.6325 µM) | relative viability (Irinotecan + OSI-027; first compound 2 µM) | relative viability (Irinotecan + OSI-027; first compound 6.325 µM) | relative viability (Irinotecan + OSI-027; first compound 20 µM) | relative viability (Irinotecan + Olaparib; first compound 0.6325 µM) | relative viability (Irinotecan + Olaparib; first compound 2 µM) | relative viability (Irinotecan + Olaparib; first compound 6.325 µM) | relative viability (Irinotecan + Olaparib; first compound 20 µM) | relative viability (MK-8033 + Pictilisib; first compound 0.02 µM) | relative viability (MK-8033 + Pictilisib; first compound 0.06325 µM) | relative viability (MK-8033 + Pictilisib; first compound 0.2 µM) | relative viability (MK-8033 + Pictilisib; first compound 0.6325 µM) | relative viability (MK-8033 + Pictilisib; first compound 2 µM) | relative viability (MK-8033 + Olaparib; first compound 0.02 µM) | relative viability (MK-8033 + Olaparib; first compound 0.06325 µM) | relative viability (MK-8033 + Olaparib; first compound 0.2 µM) | relative viability (MK-8033 + Olaparib; first compound 0.6325 µM) | relative viability (MK-8033 + Olaparib; first compound 2 µM) |
| --- | --- | --- | --- | --- | --- | --- | --- | --- | --- | --- | --- | --- | --- | --- | --- | --- | --- | --- |
| NCI-H2009 | 0.491 | 0.508 | 0.314 | 0.124 | 0.508 | 0.287 | 0.194 | 0.128 | 0.833 | 0.716 | 0.732 | 0.775 | 0.771 | 0.716 | 0.683 | 0.632 | 0.712 | 0.707 |
| NCI-H1395 | 0.352 | 0.561 | 0.45 | 0.438 |  | 0.458 | 0.455 | 0.31 | 0.726 | 0.579 | 0.683 | 0.606 | 0.628 | 0.448 | 0.362 | 0.463 | 0.469 | 0.462 |
| NCI-H1993 | 0.584 | 0.491 | 0.574 | 0.587 |  | 0.601 | 0.552 | 0.585 | 0.842 | 0.75 | 0.669 | 1 | 0.763 | 0.996 | 1.01 | 0.705 | 0.946 | 0.669 |
| HCC-366 | 0.144 | 0.714 | 0.0844 | 0.0682 | 0.206 | 0.15 | 0.0823 | 0.0649 | 0.151 | 0.0933 | 0.228 | 0.138 | 0.142 | 0.361 | 0.344 | 0.328 | 0.34 | 0.323 |
| NCI-H322M | 0.414 | 0.479 | 0.521 | 0.216 | 0.135 | 0.642 | 0.538 | 0.235 | 0.511 | 0.438 | 0.496 | 0.464 | 0.523 | 0.725 | 0.762 | 0.733 | 0.782 | 0.739 |
